Measured values from ChEMBL document CHEMBL3045944, “Synthesis and antibacterial evaluation of series of novel tri-substituted-s-triazine derivatives” (Med Chem Res, 2011).
In brackets after ≈: the same amount, converted by molar mass.

Assays:
[1] = Solubility of the compound in acetic acid; assay type: physicochemical
[2] = Solubility of the compound in chloroform; assay type: physicochemical
[3] = Solubility of the compound in water; assay type: physicochemical
[4] = Solubility of the compound in benzene; assay type: physicochemical
[5] = Solubility of the compound in ethanol; assay type: physicochemical
[6] = Solubility of the compound in DMSO; assay type: physicochemical
[7] = Solubility of the compound in ethyl acetate; assay type: physicochemical
[8] = Solubility of the compound in DMF; assay type: physicochemical
[9] = Solubility of the compound in dilute acids; assay type: physicochemical
Staphylococcus aureus = test: Antibacterial activity against Staphylococcus aureus NCIM 2079 after 24 hr by broth dilution method; assay type: functional; conditions: NCIM 2079, 24 h
Klebsiella pneumoniae = test: Antibacterial activity against Klebsiella pneumoniae NCIM 2706 after 24 hr by broth dilution method; assay type: functional; conditions: NCIM 2706, 24 h
Bacillus subtilis = test: Antibacterial activity against Bacillus subtilis NCIM 2063 after 24 hr by broth dilution method; assay type: functional; conditions: NCIM 2063, 24 h
Escherichia coli = test: Antibacterial activity against Escherichia coli NCIM 2065 after 24 hr by broth dilution method; assay type: functional; conditions: NCIM 2065, 24 h
Pseudomonas aeruginosa = test: Antibacterial activity against Pseudomonas aeruginosa NCIM 2036 after 24 hr by broth dilution method; assay type: functional; conditions: NCIM 2036, 24 h
Bacillus cereus = test: Antibacterial activity against Bacillus cereus NCIM 2156 after 24 hr by broth dilution method; assay type: functional; conditions: NCIM 2156, 24 h

SMILES	solubility [1]	solubility [2]	solubility [3]	solubility [4]	solubility [5]	solubility [6]	solubility [7]	solubility [8]	solubility [9]	MIC (Staphylococcus aureus)	MIC (Klebsiella pneumoniae)	MIC (Bacillus subtilis)	MIC (Escherichia coli)	MIC (Pseudomonas aeruginosa)	MIC (Bacillus cereus)
Nc1nc(-c2ccc([N+](=O)[O-])cc2)cs1	Insoluble	soluble	soluble	soluble	soluble	soluble	soluble	soluble	soluble	–	–	–	–	–	–
Nc1nc(-c2ccc(Cl)cc2)cs1	Insoluble	soluble	soluble	soluble	soluble	soluble	soluble	soluble	soluble	–	–	–	–	–	–
Clc1nc(Nc2ccc(Br)cc2)nc(Nc2ccc(Br)cc2)n1	soluble	Insoluble	Insoluble	soluble	soluble	soluble	soluble	Insoluble	soluble	100 µg/mL (≈ 220 µM)	100 µg/mL (≈ 220 µM)	100 µg/mL (≈ 220 µM)	100 µg/mL (≈ 220 µM)	100 µg/mL (≈ 220 µM)	100 µg/mL (≈ 220 µM)
Fc1ccc(Nc2nc(Cl)nc(Nc3ccc(F)cc3)n2)cc1	soluble	Insoluble	soluble	soluble	soluble	soluble	Insoluble	Insoluble	Insoluble	100 µg/mL (≈ 300 µM)	50 µg/mL (≈ 150 µM)	50 µg/mL (≈ 150 µM)	50 µg/mL (≈ 150 µM)	100 µg/mL (≈ 300 µM)	50 µg/mL (≈ 150 µM)
O=[N+]([O-])c1ccc(-c2csc(Nc3nc(Nc4ccc(Br)cc4)nc(Nc4ccc(Br)cc4)n3)n2)cc1	soluble	Insoluble	soluble	soluble	soluble	soluble	soluble	soluble	soluble	100 µg/mL (≈ 156 µM)	100 µg/mL (≈ 156 µM)	100 µg/mL (≈ 156 µM)	100 µg/mL (≈ 156 µM)	50 µg/mL (≈ 78.1 µM)	100 µg/mL (≈ 156 µM)
CN[C@@H]1[C@H](O[C@H]2[C@H](O[C@H]3[C@H](O)[C@@H](O)[C@H](N=C(N)N)[C@@H](O)[C@@H]3N=C(N)N)O[C@@H](C)[C@]2(O)C=O)O[C@@H](CO)[C@H](O)[C@H]1O [STREPTOMYCIN]	–	–	–	–	–	–	–	–	–	3.12 µg/mL (≈ 5.37 µM)	6.25 µg/mL (≈ 10.7 µM)	6.25 µg/mL (≈ 10.7 µM)	6.25 µg/mL (≈ 10.7 µM)	3.12 µg/mL (≈ 5.37 µM)	3.12 µg/mL (≈ 5.37 µM)

Other lines, results leading:

solubility [1]	solubility [2]	solubility [3]	solubility [4]	solubility [5]	solubility [6]	solubility [7]	solubility [8]	solubility [9]	MIC (Staphylococcus aureus)	MIC (Klebsiella pneumoniae)	MIC (Bacillus subtilis)	MIC (Escherichia coli)	MIC (Pseudomonas aeruginosa)	MIC (Bacillus cereus)	SMILES
soluble	–	soluble	soluble	soluble	soluble	–	–	soluble	50 µg/mL (≈ 124 µM)	100 µg/mL (≈ 248 µM)	100 µg/mL (≈ 248 µM)	100 µg/mL (≈ 248 µM)	100 µg/mL (≈ 248 µM)	100 µg/mL (≈ 248 µM)	Fc1ccc(Nc2nc(Cl)nc(Nc3ccc(F)c(Cl)c3)n2)cc1Cl
soluble	soluble	soluble	Insoluble	soluble	soluble	soluble	Insoluble	soluble	50 µg/mL (≈ 129 µM)	100 µg/mL (≈ 258 µM)	100 µg/mL (≈ 258 µM)	50 µg/mL (≈ 129 µM)	25 µg/mL (≈ 64.5 µM)	100 µg/mL (≈ 258 µM)	O=[N+]([O-])c1ccc(Nc2nc(Cl)nc(Nc3ccc([N+](=O)[O-])cc3)n2)cc1
soluble	soluble	Insoluble	–	soluble	soluble	Insoluble	Insoluble	Insoluble	50 µg/mL (≈ 136 µM)	25 µg/mL (≈ 68.2 µM)	50 µg/mL (≈ 136 µM)	25 µg/mL (≈ 68.2 µM)	50 µg/mL (≈ 136 µM)	100 µg/mL (≈ 273 µM)	Clc1ccc(Nc2nc(Cl)nc(Nc3ccc(Cl)cc3)n2)cc1
Insoluble	soluble	soluble	soluble	soluble	soluble	soluble	soluble	soluble	25 µg/mL (≈ 43.3 µM)	12.5 µg/mL (≈ 21.7 µM)	50 µg/mL (≈ 86.7 µM)	12.5 µg/mL (≈ 21.7 µM)	25 µg/mL (≈ 43.3 µM)	100 µg/mL (≈ 173 µM)	Fc1ccc(Nc2nc(Nc3ccc(F)c(Cl)c3)nc(Nc3nc(-c4ccc(Cl)cc4)cs3)n2)cc1Cl
Insoluble	soluble	soluble	soluble	soluble	soluble	soluble	soluble	soluble	50 µg/mL (≈ 85.1 µM)	25 µg/mL (≈ 42.6 µM)	100 µg/mL (≈ 170 µM)	12.5 µg/mL (≈ 21.3 µM)	3.12 µg/mL (≈ 5.32 µM)	25 µg/mL (≈ 42.6 µM)	O=[N+]([O-])c1ccc(-c2csc(Nc3nc(Nc4ccc(F)c(Cl)c4)nc(Nc4ccc(F)c(Cl)c4)n3)n2)cc1
Insoluble	Insoluble	soluble	soluble	soluble	soluble	Insoluble	soluble	soluble	3.12 µg/mL (≈ 5.46 µM)	6.25 µg/mL (≈ 10.9 µM)	6.25 µg/mL (≈ 10.9 µM)	6.25 µg/mL (≈ 10.9 µM)	3.12 µg/mL (≈ 5.46 µM)	6.25 µg/mL (≈ 10.9 µM)	O=[N+]([O-])c1ccc(Nc2nc(Nc3ccc([N+](=O)[O-])cc3)nc(Nc3nc(-c4ccc([N+](=O)[O-])cc4)cs3)n2)cc1
Insoluble	soluble	soluble	soluble	soluble	soluble	Insoluble	soluble	soluble	50 µg/mL (≈ 96.4 µM)	50 µg/mL (≈ 96.4 µM)	50 µg/mL (≈ 96.4 µM)	25 µg/mL (≈ 48.2 µM)	25 µg/mL (≈ 48.2 µM)	100 µg/mL (≈ 193 µM)	O=[N+]([O-])c1ccc(-c2csc(Nc3nc(Nc4ccc(F)cc4)nc(Nc4ccc(F)cc4)n3)n2)cc1
Insoluble	Insoluble	soluble	soluble	soluble	soluble	Insoluble	soluble	soluble	25 µg/mL (≈ 45.3 µM)	6.25 µg/mL (≈ 11.3 µM)	25 µg/mL (≈ 45.3 µM)	12.5 µg/mL (≈ 22.7 µM)	6.25 µg/mL (≈ 11.3 µM)	12.5 µg/mL (≈ 22.7 µM)	O=[N+]([O-])c1ccc(-c2csc(Nc3nc(Nc4ccc(Cl)cc4)nc(Nc4ccc(Cl)cc4)n3)n2)cc1
